Several values for one entry are separate records, joined by “and”; a condition that tells them apart may be missing. Equal values may be shown once.
Test system: 857933-349-R-J2-PDC complex spheroids, viability
Assay: Anticancer human tumor 857933-349-R-J2-PDC patient-derived colon adenocarcinoma cell line growth inhibition [GQUAD]
Conditions: for viability, T/C: stronger effect = lower value
Source text: DNA G-quadruplex Stabilizer Agents in Combinations in Complex Spheroids
A high-throughput screen of multi-cell type tumor spheroids was designed to identify active combinations of DNA G-quadruplex stabilizer agents and targeted small molecules. Complex spheroids include a stromal component modeled by human endothelial cells (HUVEC) and fibroblasts modeled by human mesenchymal stem cells (MSCs). The concentration ranges selected for each drug and investigational agent were based upon clinically achievable concentrations if the clinical Cmax of the agent was known.
Compounds. The drugs and investigational agents: pidnarulex (CX-5461; NSC782164), APTO-253 (NSC789042), BRACO-19 (NSC847499), peposertib (NSC802822), ceralasertib (NSC780249), elimusertib (NSC800525), camonsertib (NSC841442), AZD-1390 (NSC803789), olaparib (NSC753686), talazoparib (NSC767125), ART-558 (NSC835418), sotorasib (NSC818433), MRTX-1133 (NSC836407), SN-38 (NSC673596), topotecan (NSC609699), etoposide (NSC141540), doxorubicin (NSC123127), gemcitabine (NSC613327), 5-fluorouracil (NSC19893), paclitaxel (NSC125973), vemurafenib (NSC761431), panobinostat (NSC761190), R-306465 (JNJ-16241199; NSC773264), adavosertib (NSC754352), TP-3654 (NSC805149), carboplatin (NSC241240), KSQ-4279 (NSC840948), and staurosporine (NSC755774) were obtained from the National Cancer Institute (NCI) Developmental Therapeutics Program Chemical Repository (34). The FDA-approved anticancer drug set is available from the NCI Developmental Therapeutics Program. […] The stock solutions were prepared in dimethyl sulfoxide (DMSO, Sigma-Aldrich, St. Louis, MO, cat. D2650) at 800-fold the tested concentration and stored at -70 degrees C prior to their use. All drugs and investigational agents were tested over a range starting from a high concentration at or near the clinical Cmax and decreasing in half-log increments. If the clinical Cmax for an agent had not been determined, the highest concentration tested was 10 microM.
2.3 Cell Culture. All cells were maintained in an incubator at 37 degrees C and 5% CO2 with 95% humidity. The PDC lines were cultured according to standard operating procedures established by the NCI PDMR. All PDCs were thawed and cultured in Matrigel-coated flasks prepared with a working solution of 1X Ham's F-12 nutrient mix, without supplementation (Invitrogen, cat. 11765054), 100 U/mL penicillin-streptomycin (Invitrogen, cat. 15140122), and 2.5% Matrigel (Corning Inc., cat. 354248) for the first three passages. The 857933-349-R-J2-PDC line was cultured in 6C/Colon 1B media, which includes advanced DMEM/F-12 (Thermo Fisher Scientific, cat. 12634028), 10 mM HEPES (Thermo Fisher Scientific, cat. 15630080), 1X GlutaMAX supplement (Thermo Fisher Scientific, cat. 35050061), 0.1 mg/mL primocin (InvivoGen, cat. ant-pm-2), 10% defined fetal bovine serum, heat inactivated (HyClone Laboratories Inc., cat. SH30070.03HI), 50% L-WRN conditioned media (ATCC, cat. CRL-3276), 1.25 mM N-Acetyl-L-cysteine (Sigma-Aldrich, cat. A9165), 10 mM nicotinamide (Sigma-Aldrich, cat. N0636), 1X B-27 supplement (Thermo Fisher Scientific, cat. 17504044), 1X N-2 supplement (Thermo Fisher Scientific, cat. 17502048), 10 microM Y-27632 dihydrochloride (Tocris Bioscience, cat. 1254), and 50 ng/mL human EGF recombinant protein (Thermo Fisher Scientific, cat. PHG0311). The 485176-168-R4-J1-PDC line was cultured in Panc media, which includes all 6C/Colon 1B media components plus 100 ng/mL human FGF-10 (Thermo Fisher Scientific, cat. 100-26), 500 nM SB-431542 (Selleckchem, cat. S1067), and gastrin (Tocris, cat. 3006).
[…]

[1] = curve of first compound, second compound 0.0316 µM
[2] = curve of first compound, second compound 0.1 µM
[3] = curve of first compound, second compound 0.316 µM
[4] = curve of first compound, second compound 1 µM
[5] = curve of first compound, second compound 3.16 µM
[6] = curve of first compound, second compound 10 µM
[7] = second compound 0.0316 µM, first compound 0.0316 µM
[8] = second compound 0.0316 µM, first compound 0.1 µM
[9] = second compound 0.0316 µM, first compound 0.316 µM
[10] = second compound 0.0316 µM, first compound 1 µM
[11] = second compound 0.0316 µM, first compound 3.16 µM
[12] = second compound 0.0316 µM, first compound 10 µM
[13] = second compound 0.1 µM, first compound 0.0316 µM
[14] = second compound 0.1 µM, first compound 0.1 µM
[15] = second compound 0.1 µM, first compound 0.316 µM
[16] = second compound 0.1 µM, first compound 1 µM
[17] = second compound 0.1 µM, first compound 3.16 µM
[18] = second compound 0.1 µM, first compound 10 µM
[19] = second compound 0.316 µM, first compound 0.0316 µM
[20] = second compound 0.316 µM, first compound 0.1 µM
[21] = second compound 0.316 µM, first compound 0.316 µM
[22] = second compound 0.316 µM, first compound 1 µM
[23] = second compound 0.316 µM, first compound 3.16 µM
[24] = second compound 0.316 µM, first compound 10 µM
[25] = second compound 1 µM, first compound 0.0316 µM
[26] = second compound 1 µM, first compound 0.1 µM
[27] = second compound 1 µM, first compound 0.316 µM
[28] = second compound 1 µM, first compound 1 µM
[29] = second compound 1 µM, first compound 3.16 µM
[30] = second compound 1 µM, first compound 10 µM
[31] = second compound 3.16 µM, first compound 0.0316 µM
[32] = second compound 3.16 µM, first compound 0.1 µM
[33] = second compound 3.16 µM, first compound 0.316 µM
[34] = second compound 3.16 µM, first compound 1 µM
[35] = second compound 3.16 µM, first compound 3.16 µM
[36] = second compound 3.16 µM, first compound 10 µM
[37] = second compound 10 µM, first compound 0.0316 µM
[38] = second compound 10 µM, first compound 0.1 µM
[39] = second compound 10 µM, first compound 0.316 µM
[40] = second compound 10 µM, first compound 1 µM
[41] = second compound 10 µM, first compound 3.16 µM
[42] = second compound 10 µM, first compound 10 µM
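Further: spheroids exposed to compounds for one week before readout.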
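Wherever viability, T/C is given: percent viability relative to vehicle DMSO wells taken as 100%.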

## O=C(c1cc(Cc2n[nH]c(=O)c3ccccc23)ccc1F)N1CCN(C(=O)C2CC2)CC1 + Cc1cnc(CNC(=O)c2c(=O)c3ccc(N4CCCN(C)CC4)nc3n3c2sc2ccccc23)cn1
[1]
  IC50: > 10000 nM
[2]
  IC50: > 10000 nM
[3]
  IC50: < 31.6 nM
[4]
  IC50: < 31.6 nM
[5]
  IC50: < 31.6 nM
[6]
  IC50: < 31.6 nM
[7]
  viability, T/C: 101%
[8]
  viability, T/C: 88.6%
[9]
  viability, T/C: 99.9%
[10]
  viability, T/C: 83.7%
[11]
  viability, T/C: 84.8%
[12]
  viability, T/C: 77.8%
[13]
  viability, T/C: 66%
[14]
  viability, T/C: 80.9%
[15]
  viability, T/C: 62%
[16]
  viability, T/C: 58.4%
[17]
  viability, T/C: 68.7%
[18]
  viability, T/C: 72.3%
[19]
  viability, T/C: 29.3%
[20]
  viability, T/C: 31.1%
[21]
  viability, T/C: 26.4%
[22]
  viability, T/C: 31.4%
[23]
  viability, T/C: 34%
[24]
  viability, T/C: 38.4%
[25]
  viability, T/C: 4.96%
[26]
  viability, T/C: 4.81%
[27]
  viability, T/C: 4.45%
[28]
  viability, T/C: 3.67%
[29]
  viability, T/C: 5.47%
[30]
  viability, T/C: 6.38%
[31]
  viability, T/C: 2.65%
[32]
  viability, T/C: 2.92%
[33]
  viability, T/C: 2.93%
[34]
  viability, T/C: 3.33%
[35]
  viability, T/C: 2.59%
[36]
  viability, T/C: 2.87%
[37]
  viability, T/C: 1.22%
[38]
  viability, T/C: 2.2%
[39]
  viability, T/C: 2.36%
[40]
  viability, T/C: 1.84%
[41]
  viability, T/C: 2.2%
[42]
  viability, T/C: 1.68%

## Cc1[nH]c2ccccc2c1CCNCc1ccc(/C=C/C(=O)NO)cc1
Compound 0.000999 µM
  viability, T/C: 100% and 105% (2×)
Compound 0.00316 µM
  viability, T/C: 102% (2×) and 105%
Compound 0.00999 µM
  viability, T/C: 102% and 112% and 104%
Compound 0.0316 µM
  viability, T/C: 107% and 104% and 96.4%
Compound 0.0999 µM
  viability, T/C: 102% (2×) and 94.5%
Compound 0.316 µM
  viability, T/C: 53% and 66.9% and 44.9%
Curve of compound
  IC50: > 316 nM and 283 nM

## C#Cc1c(F)ccc2cc(O)cc(-c3ncc4c(N5CC6CCC(C5)N6)nc(OCC56CCCN5CC(F)C6)nc4c3F)c12 (stereo not drawn)
Compound 0.0316 µM
  viability, T/C: 94.6% and 101% and 111%
Compound 0.1 µM
  viability, T/C: 93.3% and 94.7% and 99.7%
Compound 0.316 µM
  viability, T/C: 93.6% and 91.5% and 99.1%
Compound 1 µM
  viability, T/C: 69.2% and 83.1% and 96.8%
Compound 3.16 µM
  viability, T/C: 75.5% and 70.2% and 97.1%
Compound 10 µM
  viability, T/C: 70% and 66.5% and 97.9%
Curve of compound
  IC50: > 10000 nM

## CC(=O)O[C@H]1C(=O)[C@@]2(C)[C@H]([C@H](OC(=O)c3ccccc3)[C@]3(O)C[C@H](OC(=O)[C@H](O)[C@@H](NC(=O)c4ccccc4)c4ccccc4)C(C)=C1C3(C)C)[C@]1(OC(C)=O)CO[C@@H]1C[C@@H]2O + Cc1[nH]c2ccc(F)cc2c1-c1nc2c3cccnc3c3ncccc3c2[nH]1
[1]
  IC50: < 31.6 nM
[2]
  IC50: < 31.6 nM
[3]
  IC50: 41.3 nM
[4]
  IC50: 32.9 nM
[5]
  IC50: 39.5 nM
[6]
  IC50: < 31.6 nM
[7]
  viability, T/C: 43.9%
[8]
  viability, T/C: 16.9%
[9]
  viability, T/C: 11.6%
[10]
  viability, T/C: 11.4%
[11]
  viability, T/C: 11.1%
[12]
  viability, T/C: 12.6%
[13]
  viability, T/C: 44.9%
[14]
  viability, T/C: 17.1%
[15]
  viability, T/C: 11.4%
[16]
  viability, T/C: 11.8%
[17]
  viability, T/C: 12.7%
[18]
  viability, T/C: 13.1%
[19]
  viability, T/C: 59.8%
[20]
  viability, T/C: 17.8%
[21]
  viability, T/C: 10.8%
[22]
  viability, T/C: 11%
[23]
  viability, T/C: 12.8%
[24]
  viability, T/C: 13.5%
[25]
  viability, T/C: 51.2%
[26]
  viability, T/C: 17.7%
[27]
  viability, T/C: 11.8%
[28]
  viability, T/C: 12.3%
[29]
  viability, T/C: 14.2%
[30]
  viability, T/C: 12.4%
[31]
  viability, T/C: 58%
[32]
  viability, T/C: 16.6%
[33]
  viability, T/C: 14.5%
[34]
  viability, T/C: 12.8%
[35]
  viability, T/C: 15%
[36]
  viability, T/C: 16.4%
[37]
  viability, T/C: 43.2%
[38]
  viability, T/C: 17.1%
[39]
  viability, T/C: 14%
[40]
  viability, T/C: 13.3%
[41]
  viability, T/C: 16.7%
[42]
  viability, T/C: 16.2%
